Test results reported in patent US20220257684A1, “ANTI-COCCIDIAL PHYTOGENIC FORMULATIONS” (priority 2019, published 2022).
“And” between values parts separate entries of the source, which are not always exact repeats. Identical values can stand only once. Marks after values point to notes of the source that are not given here.

Assays:
[1] = tested on: E. tenella oocysts; assay: Sporulation assay; assay type: cell-based, Eimeria tenella; conditions: positive control, FIG. 2A
Experimental: FIGS. 2A-C are photomicrographs (upper panels) and bar graphs (lower panels) illustrating the in vitro effects of formulations comprising A. indica (AI), B. pilosa (BP), or a mixture of A. indica (AI) and B. pilosa (BP) on viability of E. tenella (ET) oocysts and its sporulation. The oocysts were pre-treated with PBS, sodium dithionite (SD), an inhibitor of oocyst sporulation or plant extracts containing AI (2A), BP (2B), or both AI and BP (2C) at the indicated dosages for 48 h. The oocysts were induced to sporulate by potassium dichromate for 2 days. The percentage of sporulating oocysts was counted using a microscope ([…]) and plotted into bar graphs (right panel); scale bar is 200 μm. Arrow indicates sporulating oocysts whilst arrowhead indicates non-sporulating oocysts.
Sporulation assay. The E tenella oocysts were pre-treated with PBS, boiling (100° C. for 30 min) or plant extracts at indicated doses for 48 h. The oocysts were incubated with 2% potassium dichromate for 2 days before sporulation. The percentage of sporulating oocysts (%) was counted.
The effects of the plant extracts on sporulation of E. ET oocysts were tested. Seventy percent of ET oocysts were able to sporulate in the in vitro culture (PBS, FIG. 2A). […]

[2] = tested on: E. tenella (ET) sporozoites invading Madin-Darby bovine kidney (MDBK) cells; assay: Invasion assay (sporozoite entry into MDBK cells); assay type: cell-based, Eimeria tenella; conditions: at 50 μg/ml; untreated invasion 20% of the cells
Experimental: FIGS. 3A-C are photomicrographs (left panels) and bar graphs (right panels) illustrating the in vitro effects of formulations composed of A. indica (AI), B. pilosa (BP), or a mixture of A. indica (AI) and B. pilosa (BP) on E. tenella (ET) sporozoite invasion. Madin-Darby bovine kidney (MDBK) cells were incubated with salinomycin (Sal), or plant extracts containing A. indica (AI)(3A), B. pilosa (BP) (3B) or a mixture of AI and BP (3C) at indicated dosages for 0.5 h. The sporozoites were added to the MDBK cells for […]. After washing, the MDBK cells were stained with hematoxylin and eosin (H&E) and counted. The invasion percentage (%) was plotted into bar graphs. The inset represents a magnified area. Scale bars of microscope in 100× and 40× (inset) are 10 μm and 50 μm (inset), respectively. Arrowhead indicates the MDBK cells infected with sporozoites.
Invasion assay. Madin-Darby bovine kidney (MDBK, ATCC® CCL-22) cells, grown in DMEM containing fetal bovine serum (10%) and supplements, were seeded onto glass cover slips in 24 wells at 2×10^5 cells/well. One day later, the cells were pre-incubated with DMEM medium containing salinomycin, or plant extracts and phytochemicals at doses indicated for 0.5 h. Fresh sporozoites (2×10^5) were added to the cells for additional 4 h. […]

[3] = tested on: E. tenella challenged chickens; assay: Survival rate in E. tenella challenged chickens; assay type: in vivo, chicken; conditions: ET-infected chickens (1×10^4 oocysts), substance in feed; infected standard feed 60%; FIG. 4B
Description: (§1) FIG. 4A is a schematic drawing showing the experimental protocol used in in vivo studies. Birds in untreated groups had daily access to standard diet, and birds in treated groups were fed with diet containing salinomycin, A. indica (AI), B. pilosa (BP), or a mixture of AI plus BP. On day 7, chickens were challenged with PBS or E. tenella (ET) sporulated oocysts (1×10^4) by gavage. The survival rate in each group was monitored from day 1 to 7 post infection.
FIG. 4B is a graph showing survival rate in each group of FIG. 4A. Chickens were divided into eight groups: Group 1 (G1), uninfected and fed with a standard diet; Group 2 (G2), ET-infected and fed with a standard diet; Group 3 (G3) to Group 8 (G8), ET-infected and fed with diet containing salinomycin, BP alone, a combination of BP and different dosages of AI, or AI alone without BP as indicated. Each group has 15 chicks and P values are indicated.
Birds, diets, and experimental design. One-day-old Lohmann broiler chicks hatched at Taichung Hatchery (Taiwan) were wing-banded upon arrival, weighed, and randomly placed in Petersime starter brooder units. At 1 to 2 days post-hatching, the birds were given free access to water and diets. […] Growth performance (body weight and feed conversion), pathology (bloody droppings and gut morphometry) and survival rate were measured and examined (FIG. 4A). […]

[4] = tested on: E. tenella challenged chickens; assay: Body weight gain in E. tenella challenged chickens; assay type: in vivo, chicken; conditions: BP alone 0.01%, AI alone 0.01%
Description: as §1
(§2) Birds, diets, and experimental design. One-day-old Lohmann broiler chicks hatched at Taichung Hatchery (Taiwan) were wing-banded upon arrival, weighed, and randomly placed in Petersime starter brooder units. At 1 to 2 days post-hatching, the birds were given free access to water and diets. The diets were formulated by mixing a base diet with a carrier alone (control diet) or with an indicated dose of a phytogenic formulation comprising Artemisia indica (AI), B. pilosa (BP), or both AI and BP. After grouping, birds were tube-fed with Eimeria oocysts to get infection. Growth performance (body weight and feed conversion), pathology (bloody droppings and gut morphometry) and survival rate were measured and examined (FIG. 4A). […]
Body weights (BW) of the chickens from FIG. 4B were monitored on Days 1, 7 and 14, and body-weight (BW) gains were calculated on Days 7 and 14. […]

[5] = tested on: E. tenella challenged chickens; assay: Feed conversion rate in E. tenella challenged chickens; assay type: in vivo, chicken; conditions: BP alone 0.01%, AI alone 0.01% in feed
Description: as §1
as §2, with “4A). All birds were maintained in the institutional animal facility and handled according to institutional guidelines.” for “4A).”

[6] = tested on: E. tenella challenged chickens; assay: Fecal oocyst excretion in E. tenella challenged chickens; assay type: in vivo, chicken
Description: as §1
(§3) Birds, diets, and experimental design. One-day-old Lohmann broiler chicks hatched at Taichung Hatchery (Taiwan) were wing-banded upon arrival, weighed, and randomly placed in Petersime starter brooder units. At 1 to 2 days post-hatching, the birds were given free access to water and diets. The diets were formulated by mixing a base diet with a carrier alone (control diet) or with an indicated dose of a phytogenic formulation comprising Artemisia indica (AI), B. pilosa (BP), or both AI and BP. After grouping, birds were tube-fed with Eimeria oocysts to get infection. Growth performance (body weight and feed conversion), pathology (bloody droppings and gut morphometry) and survival rate were measured and examined (FIG. 4A). All birds were maintained in the institutional animal facility and handled according to institutional guidelines.
(§4) The anti-coccidial effects of the extracts of A. indica (AI), B. pilosa (BP) and a combination of both extracts were examined in vivo. Chickens were randomly divided into 8 groups and given daily (Day 1 to Day 14) access to standard chicken feed (Groups 1 and 2), feed containing salinomycin (Group 3), or feed containing the plant extracts (Groups 4 to 8) at the indicated doses (FIG. 4A).
Excretion of Eimeria oocysts in the feces of ET-infected chickens is an indicator of Eimeria multiplication. The oocysts per gram feces (OPG) in the chickens from FIG. 4B were counted from Day 3 to Day 7 post ET infection. No oocysts in the feces were detected in the uninfected unmedicated control group (Group 1, Table 3). Fecal oocyst excretion was first detected on Day 4 post infection in all the ET-infected groups and reached its peak on Day 7 post infection (Group 2).

[7] = tested on: E. tenella challenged chickens; assay: Gross cecal lesion scores in E. tenella challenged chickens; assay type: in vivo, chicken; conditions: ceca, Day 7 post ET infection
Description: as §1, §3, §4
Gross lesions in the ceca of the chickens from FIG. 4B were examined and scored. The uninfected unmedicated control chickens (Group 1, Table 4) had no lesions in the ceca (score=0). The ET infection caused more gross cecal lesions in the gut of unmedicated chickens, as evidenced by an average lesion score of 4 (Group 2) on Day 7 post infection.

[8] = tested on: E. tenella challenged chickens; assay: Microscopic cecal lesion scores and histology in E. tenella challenged chickens; assay type: in vivo, chicken; conditions: ceca, Day 7 post ET infection
Description: as §1, §3
Immunohistochemical staining. Multiple parallel sections of the ceca from chickens that had access to control diet and the diet containing Artemisia indica (AI), B. pilosa (BP), or both for 14 days were flash-frozen. The sections were stained with H&E or anti-insulin antibody, with development of diaminobenzidine tetrahydrochloride, followed by image analysis (Yang et al. Research in Veterinary Science (2015) 98:74-81).
as §4
Mucosal damages caused by coccidia were examined under microscope and scored as microscopic cecal lesions based on the distribution and severity of the mucosal destructions in the chicken cecum.

[9] = tested on: E. tenella challenged chickens; assay: Bloody stools in E. tenella challenged chickens; assay type: in vivo, chicken; conditions: Day 7 post ET infection, versus infected unmedicated birds (100%), FIG. 5
Description: as §1
FIG. 5 is a bar graph showing percentage of bloody stools in each chicken group of FIG. 4A-B on Day 7 post E. tenella (ET) infection. Chicken stools were classified on Day 1 to Day 7 post infection.
as §2

O=S([O-])S(=O)[O-].[Na+].[Na+] [sodium dithionite] was tested, and the “reduction of sporulation of ET oocysts as compared to the PBS treatment group” value [1] was 40%.
With CC[C@@H](C(=O)[C@@H](C)[C@@H](O)[C@H](C)[C@@H]1O[C@@H]([C@@H](CC)C(=O)O)CC[C@@H]1C)[C@H]1O[C@]2(C=C[C@@H](O)[C@]3(CC[C@@](C)([C@H]4CC[C@](O)(CC)[C@H](C)O4)O3)O2)[C@H](C)C[C@@H]1C [salinomycin, Salinomycin] the “ET sporozoite invasion (invasion percentage of MDBK cells)” value [2] was 10%, the survival rate [3] was 100% and the “BWG (g) Day 7-1” value ([4]; body weight Day 7 minus Day 1, prior to ET infection, substance in feed from Day 1) was 27.64 ± 1.16 g. For the same compound, the “BWG (g) Day 14-1” value ([4]; body weight Day 14 minus Day 1, ET oocysts (1×10^4) on Day 7, substance in feed Day 1 to 14) was 56.33 g and 56.33 ± 3.15 g, the “FCR Day 7-1” value ([5]; feed intake (Kg) divided by body weight gain on day 7, prior to ET infection) was 2.42 ± 0.08 and the “FCR Day 14-1” value ([5]; feed intake (Kg) divided by body weight gain on day 14, ET-infected) was 3.05 and 3.05 ± 0.13. For the same compound, the “oocysts per gram of feces versus infected unmedicated birds (Group 2), result in words” value ([6]; Day 3 to Day 7 post ET infection) was “slightly less oocysts per gram of feces”, the “Ln(OPG ± 1), 3 days post-infection” value ([6]; oocysts per gram feces, Day 3 post ET infection, BP alone 0.01%, AI alone 0.01% in feed) was 0 ± 0 and the “Ln(OPG ± 1), 4 days post-infection” value ([6]; oocysts per gram feces, Day 4 post ET infection, BP alone 0.01%, AI alone 0.01% in feed) was 3.45 ± 0.16^a,b. For the same compound, the “Ln(OPG ± 1), 5 days post-infection” value ([6]; oocysts per gram feces, Day 5 post ET infection, BP alone 0.01%, AI alone 0.01% in feed) was 4.49 ± 0.02^a,b, the “Ln(OPG ± 1), 6 days post-infection” value ([6]; oocysts per gram feces, Day 6 post ET infection, BP alone 0.01%, AI alone 0.01% in feed) was 4.89 ± 0.01^a,b and the “Ln(OPG ± 1), 7 days post-infection” value ([6]; oocysts per gram feces, Day 7 post ET infection, BP alone 0.01%, AI alone 0.01% in feed) was 5.33 ± 0.01^a,b. The “Gross lesion score 0: number of chickens” value ([7]; chickens in grade / n) was 0/15, the “Gross lesion score 1: number of chickens” value ([7]; chickens in grade / n) was 0/15 and the “Gross lesion score 2: number of chickens” value ([7]; chickens in grade / n) was 0/15. For the same compound, the “Gross lesion score 3: number of chickens” value ([7]; chickens in grade / n) was 1/15, the “Gross lesion score 4: number of chickens” value ([7]; chickens in grade / n) was 6/15 and the “Gross lesion score, Average” value ([7]; infected unmedicated 4.00, BP alone 0.01%, AI alone 0.01% in feed) was 3.86 and 3.86 ± 0.10. The “Microscopic lesion score 0 (fraction)” value [8] was 0/15, the “Microscopic lesion score 1 (fraction)” value [8] was 0/15 and the “Microscopic lesion score 3 (fraction)” value [8] was 0/15. For the same compound, the “Microscopic lesion score 5 (fraction)” value [8] was 0/15, the “Microscopic lesion score 7 (fraction)” value [8] was 2/15 and the “Microscopic lesion score, Average” value ([8]; infected unmedicated 7.20, BP alone 0.01%, AI alone 0.01% in feed) was 6.29 and 6.29 ± 0.13. The “percentage of bloody stools” value [9] was “significantly decrease in the percentage of bloody stools”.
